From PubChem BioAssay (NCI)
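Values below derive from 48-hour exposures of cells grown in 96-well plates, with endpoints linearly interpolated between the two concentrations bracketing the appropriate inhibition level. GI50: concentration for 50% inhibition of growth. Definition used: TGI = concentration required for complete inhibition of growth.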

Experiments:
Assay in all cases: NCI anticancer screen, dose series, 48 h
[1] = tested on: A498 renal
[2] = tested on: CCRF-CEM leukemia
[3] = tested on: EKVX NSCLC
[4] = tested on: IGROV1 ovarian
[5] = tested on: MALME-3M melanoma
[6] = tested on: OVCAR-8 ovarian
[7] = tested on: RPMI-8226 leukemia
[8] = tested on: RXF 393 renal
[9] = tested on: SF-295 CNS
[10] = tested on: UACC-257 melanoma

Structure (SMILES) | GI50 [1] | TGI [1] | GI50 [2] | TGI [2] | GI50 [3] | TGI [3] | GI50 [4] | TGI [4] | GI50 [5] | TGI [5] | GI50 [6] | TGI [6] | GI50 [7] | TGI [7] | GI50 [8] | TGI [8] | GI50 [9] | TGI [9] | GI50 [10] | TGI [10]
CC(=O)/C=C/c1ccc(OCc2ccc(Cl)cc2)cc1 | 254 µM | > 1000 µM | 577 µM | > 1000 µM | 298 µM | > 1000 µM | > 1000 µM | > 1000 µM | 330 µM | > 1000 µM | 613 µM | > 1000 µM | 237 µM | > 1000 µM | 568 µM | > 1000 µM | 679 µM | > 1000 µM | 274 µM | > 1000 µM
O=C(O)c1c(Br)c(Br)c(Br)c(Br)c1C1c2ccc(O)cc2Oc2cc(O)ccc21 | – | > 100 µM | – | – | – | > 100 µM | – | > 100 µM | – | > 100 µM | – | > 100 µM | – | > 100 µM | – | > 100 µM | – | > 100 µM | – | > 100 µM
COC(=O)[C@H](Cc1cn(C)cn1)NC(=O)[C@H](C)NC(=O)Nc1cc(C(F)(F)F)cc(C(F)(F)F)c1 | > 10 µM | > 10 µM | > 10 µM | > 10 µM | – | – | > 10 µM | > 10 µM | > 10 µM | > 10 µM | > 10 µM | > 10 µM | > 10 µM | > 10 µM | > 10 µM | > 10 µM | > 10 µM | > 10 µM | > 10 µM | > 10 µM
Cn1cc(C2=C(Nc3ccccc3)C(=O)NC2=O)c2ccccc21 | > 25 µM | > 25 µM | > 25 µM | > 25 µM | – | – | > 25 µM | > 25 µM | > 25 µM | > 25 µM | > 25 µM | > 25 µM | > 25 µM | > 25 µM | > 25 µM | > 25 µM | > 25 µM | > 25 µM | > 25 µM | > 25 µM
Cc1cc(O)c(C2=NN(c3ccc(S(N)(=O)=O)cc3)C(/C=C/c3ccccc3)C2)cc1Cl (stereo not given) | 14.9 µM | 42.4 µM | 17.7 µM | 50 µM | 14.2 µM | 35.3 µM | 4.32 µM | 19.8 µM | 3.01 µM | 17.4 µM | 3.03 µM | 20.2 µM | 4.95 µM | 20.6 µM | 6.69 µM | 20.2 µM | 2.36 µM | 11.9 µM | 14.5 µM | 45.7 µM
N#CC(C#N)=C/C=C(\Sc1ccc(F)cc1Cl)c1ccc(Cl)cc1 | 8.97 µM | 24 µM | 0.107 µM | – | 8.42 µM | 26.9 µM | 1.81 µM | > 54.5 µM | 0.406 µM | 1.72 µM | 0.601 µM | 6.46 µM | 0.0963 µM | 0.515 µM | 2.94 µM | > 100 µM | 0.639 µM | 6.79 µM | 1.8 µM | 4.76 µM
CC1OC(CC(=O)O)CC2=C1C(=O)c1c(O)cccc1C2=O (stereo not given) | – | 2.36 µM | – | 0.0957 µM | – | 2.02 µM | – | 0.721 µM | – | 0.495 µM | – | 1.1 µM | – | 0.241 µM | – | 0.103 µM | – | 2.51 µM | – | 0.228 µM
O=C(CCCN1CCC(C(O)c2ccc(F)cc2)CC1)c1ccc(F)cc1 (stereo not given) | – | 94.4 µM | – | 228 µM | – | 136 µM | – | 130 µM | – | 113 µM | – | 125 µM | – | 168 µM | – | 98.3 µM | – | 118 µM | – | 121 µM
O=C(NCCCl)SCCO | – | > 100 µM | – | > 100 µM | – | > 100 µM | – | > 100 µM | – | > 100 µM | – | > 100 µM | – | > 100 µM | – | > 100 µM | – | > 100 µM | – | > 100 µM
COC(=O)C(C(=O)OC)C(Br)C(Br)C(Br)c1ccccc1 (stereo not given) | 15.5 µM | 33.1 µM | 2.08 µM | 5.79 µM | – | – | 4.92 µM | 27 µM | 2.34 µM | 4.92 µM | 4.86 µM | 17.2 µM | 2.68 µM | 7.8 µM | 4.17 µM | 15.9 µM | 18.9 µM | 37.3 µM | 2.34 µM | 11 µM
COc1cc(Cl)cc(-c2nn(-c3cccc(NC(=O)Nc4ccc(Cl)c(Cl)c4)c3)cc2-c2ccncc2)c1 | 2.52 µM | 90.9 µM | 2 µM | 6 µM | – | – | 4.35 µM | > 100 µM | 2.06 µM | 7.85 µM | 2.3 µM | 11.2 µM | 0.652 µM | 3.37 µM | 1.96 µM | 7.25 µM | 1.77 µM | 7.21 µM | 1.84 µM | 5.19 µM
CC1(C)O[C@@H]2C[C@H]3[C@@H]4C[C@H](F)C5=CC(=O)C=C[C@]5(C)[C@@]4(F)[C@@H](O)C[C@]3(C)[C@]2(C(=O)CO)O1 | – | > 100 µM | – | > 100 µM | – | > 100 µM | – | > 100 µM | – | > 100 µM | – | > 100 µM | – | > 100 µM | – | > 100 µM | – | > 100 µM | – | > 100 µM
CCC1(CN(C)C)CC/C(=C\c2ccc(OC)c(OC)c2)C1=O (stereo not given) | – | > 100 µM | – | > 100 µM | – | > 100 µM | – | > 100 µM | – | > 100 µM | – | > 100 µM | – | > 69.1 µM | – | > 100 µM | – | > 100 µM | – | > 100 µM
COC1CC(N)C(O)C(C)O1 (stereo not given) | – | > 100 µM | – | > 100 µM | – | > 100 µM | – | > 100 µM | – | > 100 µM | – | > 100 µM | – | > 100 µM | – | > 100 µM | – | > 100 µM | – | > 100 µM
N#CC1=C(O)NC(O)=C(C#N)C1c1ccc(C2C(C#N)=C(O)NC(O)=C2C#N)cc1 | – | > 100 µM | – | > 100 µM | – | > 100 µM | – | > 100 µM | – | > 100 µM | – | > 100 µM | – | > 100 µM | – | > 100 µM | – | > 100 µM | – | > 100 µM
CC(=O)NC(C=O)C(O[C@H](C)C(=O)NC(C)C(=O)NC(CCC(N)=O)C(=O)OCc1ccccc1)C(O)C(O)COC(=O)CCNc1c2ccccc2nc2cccc([N+](=O)[O-])c12 (stereo not given in full) | – | > 100 µM | – | 34.6 µM | – | 22.3 µM | – | > 100 µM | – | 4.67 µM | – | 18.7 µM | – | 4.39 µM | – | 12 µM | – | 38.5 µM | – | 20.3 µM
O=c1[nH]cnc2c(COCCO)c[nH]c12 | – | > 100 µM | – | > 100 µM | – | > 100 µM | – | > 100 µM | – | > 100 µM | – | > 100 µM | – | > 100 µM | – | > 100 µM | – | > 100 µM | – | > 100 µM
NC(=O)CC(N=Cc1nc(-c2ccccc2)oc1O)C(=O)O (stereo not given) | – | > 100 µM | – | > 100 µM | – | > 100 µM | – | > 100 µM | – | > 100 µM | – | > 100 µM | – | > 100 µM | – | > 100 µM | – | > 100 µM | – | > 100 µM
COc1cccc(SSc2cccc(OC)c2C(=O)O)c1C(=O)O | – | > 100 µM | – | > 100 µM | – | > 100 µM | – | > 100 µM | – | > 100 µM | – | > 100 µM | – | > 100 µM | – | > 100 µM | – | > 100 µM | – | > 100 µM
Cc1ccc(C2NC(=O)c3ccccc3N2)c(C)c1 (stereo not given) | – | 34.9 µM | – | > 100 µM | – | > 100 µM | – | > 100 µM | – | > 69.1 µM | – | > 71.5 µM | – | 12 µM | – | > 76.2 µM | – | > 35 µM | – | > 100 µM
CC(=O)OC1=CC2(OC(C)=O)CC(C)(C)C1C1C(=O)C=CC(=O)C12 (stereo not given) | – | > 100 µM | – | > 100 µM | – | > 100 µM | – | > 100 µM | – | 38.9 µM | – | > 100 µM | – | > 100 µM | – | > 100 µM | – | > 100 µM | – | > 100 µM
COc1cc(C)c2sc3ccccc3c(=O)c2c1NCCN(C)C | 8.83 µM | 22.1 µM | – | – | – | – | 3.56 µM | 14.5 µM | 2.11 µM | 5.39 µM | 5.44 µM | 19.1 µM | 2.85 µM | 8.87 µM | 2.4 µM | 9.41 µM | 6.25 µM | 19.5 µM | 2.06 µM | 3.97 µM
CN(C)c1cccc(F)c1C(=O)NC(=O)Nc1ccc(Cl)cc1 | – | > 74.8 µM | – | – | – | > 100 µM | – | > 100 µM | – | > 100 µM | – | > 86.4 µM | – | > 36.6 µM | – | 69.6 µM | – | > 21.4 µM | – | > 100 µM
COc1ccc(CCN2CCC(CN(C)Cc3cnn(-c4ccccc4)c3)CC2)cc1 | 1.58 µM | 7.78 µM | 21 µM | 78.6 µM | – | – | 25.6 µM | > 100 µM | 2.08 µM | 4.29 µM | 16.5 µM | 37.5 µM | 13.8 µM | 42.1 µM | 7.74 µM | 24.1 µM | 12.1 µM | 25.2 µM | 2.59 µM | 7.12 µM
O=Cc1ccc(-c2ccc(-c3nc4ccccc4s3)cc2)s1 | > 100 µM | > 100 µM | 26.5 µM | 90.7 µM | 42.1 µM | > 100 µM | 55.8 µM | > 100 µM | 52.4 µM | > 100 µM | 80.9 µM | > 100 µM | – | – | > 100 µM | > 100 µM | 40.7 µM | > 100 µM | > 100 µM | > 100 µM
Cc1cc(Cl)ccc1C(=O)c1ccc2ccccc2c1C(=O)O | – | > 100 µM | – | > 100 µM | – | – | – | > 100 µM | – | > 100 µM | – | > 100 µM | – | > 100 µM | – | > 100 µM | – | > 100 µM | – | > 100 µM
